For 37 substances, Experimental rank results are on record in US20240091328A1, “FORMULATIONS AND METHODS FOR MHC-I RESTRICTED EPITOPE IMMUNIZATION” (The Research Foundation for The State University of New York, priority 2021, published 2024).

This assay deals with IFN-γ. The assay is described as follows: In vivo peptide micro-library screening, IFN-γ ELISA of re-stimulated splenocytes relative to A5. Also noted: species or system mice. The note with it: rank among 100 micro-library peptides; IFN-γ on re-stimulation relative to A5; 5 peptides plus A5 with CPQ. As to the method: Mice were immunized with 5 library peptides at a time, along with the A5 peptide, with all peptides combined and admixed with CPQ. After two intramuscular injections, splenocytes were collected, and then re-stimulated with each of the synthetic micro-library peptides, individually. Production of IFN-γ was measured and peptide immunogenicity was determined relative to the A5 peptide, which served as in internal control that could induce strong Ag-specific CD8^+ T cell responses.
For Ag screening, multivalent vaccine composed of peptide with the same MHC-I haplotypes (H-2L^d, H-2D^d, or H-2K^d) and the internal A5 peptide were admixed with CPQ. After immunization, only ˜10% of MHC-I binding peptides induced T cells in splenocytes that produced IFN-γ with peptide re-stimulation, and none were nearly as effective as A5 (FIG. 16B). The most highly immunogenic peptides only produced about a quarter of the level of IFN-γ relative to A5. […] It is also feasible that immunization with higher antigen doses of single individual peptides could have induced stronger immunogenic responses, although this would decrease the in vivo peptide micro-library screening throughput.
IFN-γ ELISA: 2.5×10^5 splenocytes were seeded in a 96 wells plate and stimulated with 10 μg/mL antigens for 72 hr. 50 μL of supernatant was collected from each well and subjected to Interferon gamma ELISA (Thermofisher; catalog: BMS606TEN) according to manufacturer protocol.
A general note: ELISA stands for enzyme-linked immunosorbent assay.

Turning to “H6-KPFTICKYY-ERR (HHHHHHKPFTICKYYERR; CT88)”, the Experimental rank worked out at 34.

In the case of “H6-EPQIAMDDM-ERR (HHHHHHEPQIAMDDMERR; CT22)”, the Experimental rank came out at 74.

In the case of “H6-DPQFAENYV-ERR (HHHHHHDPQFAENYVERR; CT94)”, the Experimental rank is recorded as 55.

With “H6-KTPEL VEAL-ERR (HHHHHHKTPELVEALERR; CT36*)”, the Experimental rank was determined as 51.

On to “H6-RTPHVLWSW-ERR (HHHHHHRTPHVLWSWERR; CT41)”, for which the Experimental rank was 40.

Take “H6-EYEKIEIPI-ERR (HHHHHHEYEKIEIPIERR; CT68)”: the Experimental rank stood at 66.

On to “H6-NALSSMGAL-ERR (HHHHHHNALSSMGALERR; CT40*)”, for which the Experimental rank turned out to be 6.

As to “H6-TGRRRTATK-ERR (HHHHHHTGRRRTATKERR; CT59)”, the Experimental rank is 30.

With “H6-SPKALAHNG-ERR (HHHHHHSPKALAHNGERR; CT37*)”, the Experimental rank was determined as 1.

“H6-IYLESVAIM-ERR (HHHHHHIYLESVAIMERR; CT78)”: the Experimental rank was 50.

With “H6-EGPHGQPVS-ERR (HHHHHHEGPHGQPVSERR; CT54)”, the Experimental rank stood at 57.

As to “H6-SPNRRFTEM-ERR (HHHHHHSPNRRFTEMERR; CT17)”, the Experimental rank stood at 58.

Regarding “H6-WGAWLSGAL-ERR (HHHHHHWGAWLSGALERR; CT42)”, the Experimental rank is reported as 28.

Regarding “H6-FPSESEFFK-ERR (HHHHHHFPSESEFFKERR; CT83)”, the Experimental rank turned out to be 26.

Turning to “H6-FFMKMASKF-ERR (HHHHHHFFMKMASKFERR; CT73)”, the Experimental rank was found to be 78.

For the substance “H6-SYETLKKSL-ERR (HHHHHHSYETLKKSLERR; CT7)”, the Experimental rank came out at 94.

For the substance “H6-SYTSYIMAI-ERR (HHHHHHSYTSYIMAIERR; CT10)”, the Experimental rank is listed as 69.

Take “H6-GFPSPLGGI-ERR (HHHHHHGFPSPLGGIERR; CT58)”: the Experimental rank is on record as 42.

“H6-YYESDEFTV-ERR (HHHHHHYYESDEFTVERR; CT65)”: the Experimental rank is given as 17.

As to “H6-SYQAALAEN-ERR (HHHHHHSYQAALAENERR; CT77)”, the Experimental rank came out at 39.

Take “H6-TYWKGNPEM-ERR (HHHHHHTYWKGNPEMERR; CT31)”: the Experimental rank stood at 97.

On to “H6-RGPPPHSAP-ERR (HHHHHHRGPPPHSAPERR; H6 and ERR flanks; CT46)”, for which the Experimental rank was 72.

As to “H6-YVYEIYMTF-ERR (HHHHHHYVYEIYMTFERR; CT98)”, the Experimental rank is on record as 9.

“H6-LNYPHITNL-ERR (HHHHHHLNYPHITNLERR; CT81)”: the Experimental rank was 54.

For “H6-CYVTYKGEI-ERR (HHHHHHCYVTYKGEIERR; CT9)”, the Experimental rank is 89.

As to “H6-AYVNAIEKI-ERR (HHHHHHAYVNAIEKIERR; CT12)”, the Experimental rank turned out to be 93.

Take “H6-SGPSYATYL-ERR (HHHHHHSGPSYATYLERR; CT1)”: the Experimental rank came out at 62.

In the case of “H6-NPRAMQVLL-ERR (HHHHHHNPRAMQVLLERR; CT20)”, the Experimental rank was determined as 38.

In the case of “H6-KPYESYTEQ-ERR (HHHHHHKPYESYTEQERR; CT87)”, the Experimental rank came to 75.

Turning to “H6-TY AIALINV-ERR (HHHHHHTYAIALINVERR; CT70)”, the Experimental rank is reported as 29.

Consider “H6-KGPKRDEQC-ERR (HHHHHHKGPKRDEQCERR; CT2)”, for which the Experimental rank is given as 65.

With “H6-SYLRRLPGL-ERR (HHHHHHSYLRRLPGLERR; CT35)”, the Experimental rank stood at 100.

Turning to “H6-KLLASALST-ERR (HHHHHHKLLASALSTERR; CT39*)”, the Experimental rank is listed as 5.

Take “H6-RYWTGIGVL-ERR (HHHHHHRYWTGIGVLERR; CT11)”: the Experimental rank stood at 92.

Regarding “H6-LYLANLRHM-ERR (HHHHHHLYLANLRHMERR; CT64)”, the Experimental rank was determined as 14.

Take “H6-HYLNDGDAI-ERR (HHHHHHHYLNDGDAIERR; H6 and ERR flanks; CT25)”: the Experimental rank is reported as 80.

Take “H6-MPQLFMVSK-ERR (HHHHHHMPQLFMVSKERR; CT100)”: the Experimental rank turned out to be 16.
